In article PMC7926793, “Synthesis and Biological Evaluation of 1-(Diarylmethyl)-1H-1,2,4-triazoles and 1-(Diarylmethyl)-1H-imidazoles as a Novel Class of Anti-Mitotic Agent for Activity in Breast Cancer” (Pharmaceuticals, 2021):
“And” between values parts separate entries of the source, which are not always exact repeats. Equal values may be shown once.

Assays:
[1] = system: NCI 60 cell line panel; assay: NCI 60 cell line screen, panel means; assay type: cell-based, human
[2] = system: HL-60 (TB); assay: NCI 60 cell line screen (Leukemia); assay type: cell-based, human
[3] = system: K-562; assay: NCI 60 cell line screen (Leukemia); assay type: cell-based, human
[4] = system: MOLT-4; assay: NCI 60 cell line screen (Leukemia); assay type: cell-based, human
[5] = system: A549/ATCC; assay: NCI 60 cell line screen (Non-Small Cell Lung Cancer); assay type: cell-based, human
[6] = system: NCI-H226; assay: as above; assay type: cell-based, human
[7] = system: COLO 205; assay: NCI 60 cell line screen (Colon Cancer); assay type: cell-based, human
[8] = system: HCT-116; assay: NCI 60 cell line screen (Colon Cancer); assay type: cell-based, human
[9] = system: HT29; assay: NCI 60 cell line screen (Colon Cancer); assay type: cell-based, human
[10] = system: KM12; assay: NCI 60 cell line screen (Colon Cancer); assay type: cell-based, human
[11] = system: SW-620; assay: NCI 60 cell line screen (Colon Cancer); assay type: cell-based, human
[12] = system: SF-268; assay: NCI 60 cell line screen (CNS Cancer); assay type: cell-based, human
[13] = system: SF295; assay: NCI 60 cell line screen (CNS Cancer); assay type: cell-based, human
[14] = system: SF539; assay: NCI 60 cell line screen (CNS Cancer); assay type: cell-based, human
[15] = system: SNB-75; assay: NCI 60 cell line screen (CNS Cancer); assay type: cell-based, human; conditions: SNB-75, single dose 10 µM
[16] = system: U251 (AC in Table 3); assay: NCI 60 cell line screen (CNS Cancer); assay type: cell-based, human
[17] = system: PC-3; assay: NCI 60 cell line screen (Prostate cancer); assay type: cell-based, human
[18] = system: MALME-3M; assay: NCI 60 cell line screen (Melanoma); assay type: cell-based, human; conditions: single dose 10 µM
[19] = system: MDA-MB-435; assay: NCI 60 cell line screen (Melanoma); assay type: cell-based, human
[20] = system: SK-MEL-28; assay: NCI 60 cell line screen (Melanoma); assay type: cell-based, human; conditions: SK-MEL-28, single dose 10 µM
[21] = system: SK-MEL-5; assay: NCI 60 cell line screen (Melanoma); assay type: cell-based, human
[22] = system: IGROV1; assay: NCI 60 cell line screen (Ovarian Cancer); assay type: cell-based, human
[23] = system: OVCAR-8; assay: NCI 60 cell line screen (Ovarian Cancer); assay type: cell-based, human
[24] = system: 786-0; assay: NCI 60 cell line screen (Renal Cancer); assay type: cell-based, human
[25] = system: A498; assay: NCI 60 cell line screen (Renal Cancer); assay type: cell-based, human
[26] = system: RXF 393; assay: NCI 60 cell line screen (Renal Cancer); assay type: cell-based, human
[27] = system: TK-10; assay: NCI 60 cell line screen (Renal Cancer); assay type: cell-based, human
[28] = system: UO-31; assay: NCI 60 cell line screen (Renal Cancer); assay type: cell-based, human
[29] = system: MDA-MB-468; assay: NCI 60 cell line screen (Breast Cancer); assay type: cell-based, human
[30] = molecular target: T1, CYP19 (aromatase) (Homo sapiens, UniProt P11511); assay: cytochrome P450 assay (DBF fluorescence)
T1 sequence (P11511 1-503): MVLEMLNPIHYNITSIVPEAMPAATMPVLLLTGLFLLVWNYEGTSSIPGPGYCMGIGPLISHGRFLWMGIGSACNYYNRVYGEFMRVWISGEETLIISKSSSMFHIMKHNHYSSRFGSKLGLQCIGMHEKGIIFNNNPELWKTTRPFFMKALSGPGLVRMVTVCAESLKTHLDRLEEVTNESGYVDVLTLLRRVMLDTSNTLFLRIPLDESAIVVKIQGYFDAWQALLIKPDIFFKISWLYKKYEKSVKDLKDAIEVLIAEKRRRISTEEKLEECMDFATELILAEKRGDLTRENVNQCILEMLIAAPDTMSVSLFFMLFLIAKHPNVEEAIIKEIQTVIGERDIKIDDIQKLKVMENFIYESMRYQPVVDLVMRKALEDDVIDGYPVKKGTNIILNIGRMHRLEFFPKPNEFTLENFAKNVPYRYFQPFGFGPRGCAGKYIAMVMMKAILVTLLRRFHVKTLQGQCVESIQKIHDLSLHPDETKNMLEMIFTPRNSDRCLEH

COc1ccc(C(c2cc(OC)c(OC)c(OC)c2)n2cncn2)cc1O (centres unmarked) [19e, 5-((1H-1,2,4-Triazol-1-yl)(3,4,5-Trimethoxyphenyl)methyl)-2-Methoxyphenol]
Mean Growth percentage ([1]; 60 cell line panel, single dose 10 µM): 26.24%
MID TGI (total growth inhibition) ([1]; 60 cell lines): 53.7 µM
GI50 ([1]; Homo sapiens, 60 cell, NCI 5 dose assay, 60 cell lines, read-out: MG-MID (mean of GI50 values over all cell lines)): 0.243 µM
GI50 ([2]; Homo sapiens, NCI 5 dose assay): 0.261 µM
Growth percentage ([2]; single dose 10 µM): -32.53%
GI50 ([3]; Homo sapiens, K562, K-562, NCI 5 dose assay): 0.427 µM
Growth percentage ([3]; K-562, single dose 10 µM): 8.34%
GI50 ([4]; Homo sapiens, MOLT-4, NCI 5 dose assay): 0.51 µM
Growth percentage ([4]; MOLT-4, single dose 10 µM): 16.7%
GI50 ([5]; Homo sapiens, NCI 5 dose assay): 0.969 µM
Growth percentage ([5]; single dose 10 µM): 18.6%
GI50 ([6]; Homo sapiens, NCI-H226, NCI 5 dose assay): 1.43 µM
Growth percentage ([6]; NCI-H226, single dose 10 µM): 73.39%
Growth percentage ([7]; COLO 205, single dose 10 µM): -1.65%
GI50 ([7]; Homo sapiens, COLO 205, NCI 5 dose assay): 0.332 µM
Growth percentage ([8]; HCT-116, single dose 10 µM): 7.25%
GI50 ([8]; Homo sapiens, HCT-116, NCI 5 dose assay): 0.448 µM
Growth percentage ([9]; HT29, single dose 10 µM): 5.30%
GI50 ([9]; Homo sapiens, HT-29, HT29, NCI 5 dose assay): 0.33 µM
GI50 ([10]; Homo sapiens, KM12, NCI 5 dose assay): 0.418 µM
Growth percentage ([10]; KM12, single dose 10 µM): 21.79%
GI50 ([11]; Homo sapiens, SW-620, NCI 5 dose assay): 0.431 µM
Growth percentage ([11]; SW-620, single dose 10 µM): 29.08%
GI50 ([12]; Homo sapiens, SF-268, NCI 5 dose assay): 0.469 µM
Growth percentage ([12]; SF-268, single dose 10 µM): 48.75%
GI50 ([13]; Homo sapiens, SF-295, SF295, NCI 5 dose assay): 0.325 µM
Growth percentage ([13]; SF295, single dose 10 µM): 2.56%
GI50 ([14]; Homo sapiens, SF-539, SF539, NCI 5 dose assay): 0.3 µM
Growth percentage ([14]; SF539, single dose 10 µM): 9.34%
Growth percentage [15]: 48.64%
GI50 ([16]; Homo sapiens, U-251, cell line printed AC, NCI 5 dose assay): 0.446 µM
Growth percentage ([16]; U251, single dose 10 µM): 15.32%
GI50 ([17]; Homo sapiens, PC-3, NCI 5 dose assay): 0.431 µM
Growth percentage ([17]; PC-3, single dose 10 µM): 21.20%
Growth percentage [18]: 70.24%
GI50 ([19]; Homo sapiens, MDA-MB-435, NCI 5 dose assay): 0.181 µM
Growth percentage ([19]; MDA-MB-435, single dose 10 µM): -46.16%
Growth percentage [20]: 57.04%
GI50 ([21]; Homo sapiens, SK-MEL-5, NCI 5 dose assay): 0.44 µM
Growth percentage ([21]; SK-MEL-5, single dose 10 µM): 14.60%
GI50 ([22]; Homo sapiens, IGROV-1, IGROV1, NCI 5 dose assay): 0.959 µM
Growth percentage ([22]; IGROV1, single dose 10 µM): 49.22%
GI50 ([23]; Homo sapiens, OVCAR-8, NCI 5 dose assay): 1.14 µM
Growth percentage ([23]; OVCAR-8, single dose 10 µM): 13.43%
Growth percentage ([24]; 786-0, single dose 10 µM): 28.10%
GI50 ([24]; Homo sapiens, 786-0, NCI 5 dose assay): 0.475 µM
Growth percentage ([25]; A498, single dose 10 µM): 9.66%
GI50 ([25]; Homo sapiens, A498, NCI 5 dose assay): 0.324 µM
GI50 ([26]; Homo sapiens, RXF 393, NCI 5 dose assay): 0.321 µM
Growth percentage ([26]; RXF 393, single dose 10 µM): -13.85%
GI50 ([27]; Homo sapiens, TK-10, NCI 5 dose assay): > 100 µM
Growth percentage ([27]; TK-10, single dose 10 µM): 61.31%
GI50 ([28]; Homo sapiens, UO-31, NCI 5 dose assay): 0.903 µM
Growth percentage ([28]; UO-31, single dose 10 µM): 57.96%
GI50 ([29]; Homo sapiens, MDA-MB-468, NCI 5 dose assay): 0.371 µM
Growth percentage ([29]; MDA-MB-468, single dose 10 µM): 7.88%
IC50 ([30]; IC50 CYP19): 29 µM and 29.6 µM
inhibition at 20 µg/mL ([30]; read-out: % Inhibition at 20 µg/mL CYP19): 85.3%
inhibition at 20 µM ([30]; read-out: inhibition of CYP19): > 85%
